In US9556215B2, “Synthetic pentasaccharides having short half-life and high activity” (CARBOMIMETICS, priority 2011, dated 2017):

Tests used:
[1] = biological target: T1, factor Xa in the presence of AT (Homo sapiens, UniProt P01008); assay: Determination of anti-factor Xa activity (IC50), Stachrom HP kit; type: biochemical; details: factor Xa inhibition in the presence of AT
T1 construct: purchased Diagnostica Stago Stachrom HP kit
Experimental: In the description of exemplified compounds, “IC50” represents the anti-factor Xa activity.
Determination of Anti-Factor Xa Activity of Compounds (IC50)
The compounds were compared as to their ability of inhibiting factor Xa in the presence of AT under standard conditions. For each compound a curve was plotted representing the inhibition % vs. concentration. The concentration inhibiting 50% of the factor Xa activity (IC50) was determined. A commercially available system was used for this purpose: compoundStachrom HP kit (Diagnostica Stago). This assay was carried out on a STA Compact (Diagnostica Stago).

[2] = Pharmacokinetic study after intravenous administration (half-life of elimination); type: in vivo, female Wistar Han rats; details: plasma concentration by anti-factor Xa bioassay
Experimental: Quantification of Compounds in Plasma
Rat plasmatic concentration of compounds (μg compound/mL plasma) was determined using a bioassay based on their anti-factor Xa activity (Stachrom HP kit, Diagnostica Stago as described above). This assay was carried out on a STA Compact (Diagnostica Stago). A specific calibration curve was preformed with each compound to be quantified in rat plasma.
Pharmacokinetic Study after Intravenous Administration (Half-Life of Elimination, T½)
The pharmacokinetics of the compounds of the present invention were investigated in female Wistar Han rats after intravenous administration.
Blood samples were taken at various time points and blood (9 volumes) was mixed with sodium citrate (1 volume) and cooled immediately on ice. The sample was subjected to a centrifugation at 3000×g for 10 minutes at low temperature (the plasma is typically stable for 24 h at temperature below 8° C.) and stored frozen at −20° C. Concentration of compound (per mL of plasma) was determined by their anti-factor Xa activity using factor Xa activity as described above.
For each compound, the half-life of elimination was calculated from the concentration versus time curve thus obtained.

[3] = cited from earlier work

T1 sequence (P01008 33-464): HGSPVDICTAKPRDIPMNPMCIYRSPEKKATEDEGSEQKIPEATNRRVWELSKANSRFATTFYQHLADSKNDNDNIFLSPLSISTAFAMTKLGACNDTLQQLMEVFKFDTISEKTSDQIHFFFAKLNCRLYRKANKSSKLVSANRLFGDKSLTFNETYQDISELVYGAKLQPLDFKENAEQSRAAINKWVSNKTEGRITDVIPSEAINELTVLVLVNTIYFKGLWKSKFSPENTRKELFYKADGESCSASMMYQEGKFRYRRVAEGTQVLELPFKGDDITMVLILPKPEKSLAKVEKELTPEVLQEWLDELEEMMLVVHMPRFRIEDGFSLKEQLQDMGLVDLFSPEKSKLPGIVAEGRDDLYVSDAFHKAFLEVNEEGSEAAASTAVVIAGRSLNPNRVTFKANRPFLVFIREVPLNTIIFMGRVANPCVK

| Compound | IC50 [1] [nM] | half-life ([2]; female, Wistar Han, rat, read-out: T1/2 (Rat), half-life of elimination (converted)) [h] | half-life in human [3] [h] | T1/2 (Rat), half-life of elimination [2] [h] |
| --- | --- | --- | --- | --- |
| CCC1(C(=O)O)OC(OC2C(COS(=O)(=O)O)OC(OC3C(OC)C4OCC3(C(=O)O)OC4OC3C(COS(=O)(=O)O)OC(OC)C(OS(=O)(=O)O)C3OC)C(OS(=O)(=O)O)C2OS(=O)(=O)O)C(OC)C(OC)C1OC1OC(COS(=O)(=O)O)C(OC)C(OC)C1OC (centres unmarked) [Compound PA01] | 34 | 3.5 ± 0.3 |  |  |
| CO[C@H]1O[C@H](COS(=O)(=O)O)[C@@H](O[C@@H]2O[C@@H](C(=O)O)[C@@H](O[C@H]3O[C@H](COS(=O)(=O)O)[C@@H](O[C@@H]4O[C@H](C(=O)O)[C@@H](O[C@H]5O[C@H](COS(=O)(=O)O)[C@@H](O)[C@H](O)[C@H]5NS(=O)(=O)O)[C@H](O)[C@H]4O)[C@H](OS(=O)(=O)O)[C@H]3NS(=O)(=O)O)[C@H](O)[C@H]2OS(=O)(=O)O)[C@H](O)[C@H]1NS(=O)(=O)O [Fondaparinux sodium] |  |  | 17 |  |
| CCCCCCOC1C(COS(=O)(=O)O)OC(OC2C(OC)C(OC)C(OC3C(COS(=O)(=O)O)OC(OC4C(OC)C5OCC4(C(=O)O)OC5OC4C(COS(=O)(=O)O)OC(OC)C(OS(=O)(=O)O)C4OC)C(OS(=O)(=O)O)C3OS(=O)(=O)O)OC2(CC)C(=O)O)C(N)C1OCCCCCC (centres unmarked) [Compound PA02] | 108 |  |  | 4.8 ± 0.5 |
